Assay results published in PubChem BioAssay AID328 (DTP/NCI, 2004).
Values joined by “and” are separate entries in the source; they are usually repeats but may differ in a detail not shown here. Equal entries are not always repeated. Inconclusive results and toxic doses are left out.

Tested on: BDF1 mice, P388 leukemia ip, median survival T/C
Experiment: NCI In Vivo Anticancer Drug Screen. Data for tumor model P388 Leukemia (intraperitoneal) in B6D2F1 (BDF1) mice
Details: endpoint: median survival time, higher = longer survival
In short: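 Read-out is survival of treated animals expressed relative to the vehicle group, as a T/C ratio.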

[1] = dose: 25.0 mg/kg/injection, schedule: Q01DX009 (ip), vehicle: saline with Tween-80
[2] = dose: 50.0 mg/kg/injection, schedule: Q01DX009 (ip), vehicle: saline with Tween-80
[3] = dose: 50.0 mg/kg/injection, schedule: Q04DX003 (ip), vehicle: saline with Tween-80
[4] = dose: 100.0 mg/kg/injection, schedule: Q01DX009 (ip), vehicle: saline with Tween-80
[5] = dose: 100.0 mg/kg/injection, schedule: Q04DX003 (ip), vehicle: saline with Tween-80
[6] = dose: 200.0 mg/kg/injection, schedule: Q01DX009 (ip), vehicle: saline with Tween-80
[7] = dose: 200.0 mg/kg/injection, schedule: Q04DX003 (ip), vehicle: saline with Tween-80
[8] = dose: 400.0 mg/kg/injection, schedule: Q04DX003 (ip), vehicle: Klucel (hydroxypropylcellulose) (HPC)
[9] = dose: 100.0 mg/kg/injection, schedule: Q01DX001 (ip), vehicle: saline
[10] = dose: 200.0 mg/kg/injection, schedule: Q01DX001 (ip), vehicle: saline

For `Cc1ccc(C(=O)O)cc1S(=O)(=O)Cl`, the T/C (dose: 4.0 mg/kg/injection, schedule: Q01DX009 (ip), vehicle: saline with Tween-80) was 117 % of control, the T/C (dose: 8.0 mg/kg/injection, schedule: Q01DX009 (ip), vehicle: saline with Tween-80) was 110 % of control and the T/C (dose: 16.0 mg/kg/injection, schedule: Q01DX009 (ip), vehicle: saline with Tween-80) was 90 % of control. For the same molecule, the T/C [1] was 104 % of control, the T/C (dose: 32.0 mg/kg/injection, schedule: Q01DX009 (ip), vehicle: saline with Tween-80) was 117 % of control and the T/C [2] was 95 % of control. For the same molecule, the T/C [3] was 106 % of control, the T/C [4] was 98 % of control and the T/C [5] was 100 % of control. For the same molecule, the T/C [6] was 95 % of control.
With `CCc1oc(=O)c(Cc2c(O)cc(O)c3c2OC(c2ccccc2)CC3=O)c(O)c1C` (centres undefined) the T/C (dose: 4.0 mg/kg/injection, schedule: Q01DX009 (ip), vehicle: Klucel (hydroxypropylcellulose) (HPC)) was 95 % of control, the T/C (dose: 8.0 mg/kg/injection, schedule: Q01DX009 (ip), vehicle: Klucel (hydroxypropylcellulose) (HPC)) was 100 % of control and the T/C (dose: 16.0 mg/kg/injection, schedule: Q01DX009 (ip), vehicle: Klucel (hydroxypropylcellulose) (HPC)) was 93 % of control. For the same molecule, the T/C (dose: 32.0 mg/kg/injection, schedule: Q01DX009 (ip), vehicle: Klucel (hydroxypropylcellulose) (HPC)) was 93 % of control.
With `Clc1nc2nsnc2nc1Cl` the T/C (dose: 6.25 mg/kg/injection, schedule: Q04DX003 (ip), vehicle: saline with Tween-80) was 101 % of control, the T/C (dose: 12.5 mg/kg/injection, schedule: Q01DX009 (ip), vehicle: saline with Tween-80) was 104 % of control and the T/C (dose: 12.5 mg/kg/injection, schedule: Q04DX003 (ip), vehicle: saline with Tween-80) was 94 % of control and 115 % of control. The T/C [1] was 98 % of control, the T/C (dose: 25.0 mg/kg/injection, schedule: Q04DX003 (ip), vehicle: saline with Tween-80) was 101 % of control and 107 % of control and the T/C [2] was 107 % of control. The T/C [3] was 97 % of control and 107 % of control, the T/C [4] was 122 % of control and the T/C [5] was 105 % of control. The T/C [6] was 118 % of control, the T/C [7] was 110 % of control and 112 % of control and the T/C (dose: 300.0 mg/kg/injection, schedule: Q04DX003 (ip), vehicle: saline with Tween-80) was 115 % of control. For the same molecule, the T/C (dose: 400.0 mg/kg/injection, schedule: Q01DX009 (ip), vehicle: saline with Tween-80) was 105 % of control.
With `COC(=O)C(C)NC1=C(Cl)C(=O)C(NC(C)C(=O)OC)=C(Cl)C1=O` (centres undefined) the T/C (dose: 50.0 mg/kg/injection, schedule: Q01DX009 (ip), vehicle: saline + Tween-80 + alcohol) was 98 % of control, the T/C (dose: 100.0 mg/kg/injection, schedule: Q01DX009 (ip), vehicle: saline + Tween-80 + alcohol) was 97 % of control and the T/C (dose: 200.0 mg/kg/injection, schedule: Q01DX009 (ip), vehicle: saline + Tween-80 + alcohol) was 101 % of control.
For `NC(=S)NNC(=O)/C=C/c1ccccc1`, the T/C (dose: 100.0 mg/kg/injection, schedule: Q01DX001 (ip), vehicle: saline sonified) was 104 % of control, the T/C (dose: 200.0 mg/kg/injection, schedule: Q01DX001 (ip), vehicle: saline sonified) was 100 % of control and the T/C (dose: 400.0 mg/kg/injection, schedule: Q01DX001 (ip), vehicle: saline sonified) was 95 % of control.
For `CC(=O)Nc1ccc(S(=O)(=O)F)cc1`, the T/C [3] was 87 % of control, the T/C [5] was 104 % of control and the T/C [7] was 100 % of control.
`CN1CCN(c2ccc([N+](=O)[O-])c3no[n+]([O-])c23)CC1` was tested, and the T/C (dose: 10.0 mg/kg/injection, schedule: Q01DX009 (ip), vehicle: saline with Tween-80) was 166 % of control and the T/C (dose: 20.0 mg/kg/injection, schedule: Q01DX009 (ip), vehicle: saline with Tween-80) was 169 % of control.
In the case of `CC(=O)N(NC(=O)c1ccccn1)C(C)=O`, the T/C (dose: 50.0 mg/kg/injection, schedule: Q01DX009 (ip), vehicle: saline sonified) is reported as 86 % of control, the T/C (dose: 50.0 mg/kg/injection, schedule: Q04DX003 (ip), vehicle: saline sonified) is reported as 104 % of control and the T/C (dose: 100.0 mg/kg/injection, schedule: Q01DX009 (ip), vehicle: saline sonified) is reported as 95 % of control. The T/C (dose: 100.0 mg/kg/injection, schedule: Q04DX003 (ip), vehicle: saline sonified) was 90 % of control, the T/C (dose: 200.0 mg/kg/injection, schedule: Q01DX009 (ip), vehicle: saline sonified) was 91 % of control and the T/C (dose: 200.0 mg/kg/injection, schedule: Q04DX003 (ip), vehicle: saline sonified) was 104 % of control.
In the case of `CCOCN(COCC)c1cccc(Cl)c1`, the T/C [2] is reported as 100 % of control and 115 % of control, the T/C [4] is reported as 118 % of control and the T/C [6] is reported as 118 % of control.
For `Cc1ccc(NC(=O)c2ccccc2)cc1[As]=[As]c1cc(NC(=O)c2ccccc2)ccc1C` (centres undefined), the T/C (dose: 1.25 mg/kg/injection, schedule: Q01DX009 (ip), vehicle: gum acacia) was 150 % of control, the T/C (dose: 1.25 mg/kg/injection, schedule: Q04DX003 (ip), vehicle: gum acacia) was 122 % of control and the T/C (dose: 2.2 mg/kg/injection, schedule: Q04DX003 (ip), vehicle: gum acacia) was 113 % of control. The T/C (dose: 2.5 mg/kg/injection, schedule: Q01DX009 (ip), vehicle: gum acacia) was 165 % of control, the T/C (dose: 3.3 mg/kg/injection, schedule: Q04DX003 (ip), vehicle: Klucel (hydroxypropylcellulose) (HPC)) was 116 % of control and the T/C (dose: 5.0 mg/kg/injection, schedule: Q04DX003 (ip), vehicle: Klucel (hydroxypropylcellulose) (HPC)) was 104 % of control. The T/C (dose: 10.0 mg/kg/injection, schedule: Q04DX003 (ip), vehicle: gum acacia) was 154 % of control.
With `ClC(Cl)(Cl)c1ccc(C(Cl)(Cl)Cl)cc1` the T/C (dose: 6.0 mg/kg/injection, schedule: Q01DX009 (ip), vehicle: Klucel (hydroxypropylcellulose) (HPC)) was 100 % of control, the T/C (dose: 6.25 mg/kg/injection, schedule: Q01DX009 (ip), vehicle: Klucel (hydroxypropylcellulose) (HPC)) was 90 % of control and the T/C (dose: 12.0 mg/kg/injection, schedule: Q01DX009 (ip), vehicle: Klucel (hydroxypropylcellulose) (HPC)) was 104 % of control. The T/C (dose: 12.5 mg/kg/injection, schedule: Q01DX009 (ip), vehicle: Klucel (hydroxypropylcellulose) (HPC)) was 90 % of control, the T/C (dose: 12.5 mg/kg/injection, schedule: Q04DX003 (ip), vehicle: Klucel (hydroxypropylcellulose) (HPC)) was 105 % of control and the T/C (dose: 22.0 mg/kg/injection, schedule: Q04DX003 (ip), vehicle: Klucel (hydroxypropylcellulose) (HPC)) was 96 % of control and 118 % of control. The T/C (dose: 25.0 mg/kg/injection, schedule: Q01DX009 (ip), vehicle: Klucel (hydroxypropylcellulose) (HPC)) was 104 % of control, the T/C (dose: 25.0 mg/kg/injection, schedule: Q04DX003 (ip), vehicle: Klucel (hydroxypropylcellulose) (HPC)) was 120 % of control and the T/C (dose: 33.0 mg/kg/injection, schedule: Q04DX003 (ip), vehicle: Klucel (hydroxypropylcellulose) (HPC)) was 119 % of control and 122 % of control. For the same molecule, the T/C (dose: 50.0 mg/kg/injection, schedule: Q01DX009 (ip), vehicle: Klucel (hydroxypropylcellulose) (HPC)) was 90 % of control and 100 % of control, the T/C (dose: 75.0 mg/kg/injection, schedule: Q04DX003 (ip), vehicle: Klucel (hydroxypropylcellulose) (HPC)) was 100 % of control and the T/C (dose: 100.0 mg/kg/injection, schedule: Q01DX009 (ip), vehicle: Klucel (hydroxypropylcellulose) (HPC)) was 100 % of control. The T/C (dose: 150.0 mg/kg/injection, schedule: Q04DX003 (ip), vehicle: Klucel (hydroxypropylcellulose) (HPC)) was 109 % of control, the T/C (dose: 250.0 mg/kg/injection, schedule: Q04DX003 (ip), vehicle: Klucel (hydroxypropylcellulose) (HPC)) was 100 % of control and the T/C [8] was 104 % of control.
In the case of `Cc1ccc(S(=O)(=O)c2ccc(S(=O)(=O)c3ccc(C)cc3)c3c2no[n+]3[O-])cc1`, the T/C (dose: 15.0 mg/kg/injection, schedule: Q01DX009 (ip), vehicle: saline with Tween-80) is reported as 107 % of control, the T/C (dose: 30.0 mg/kg/injection, schedule: Q01DX009 (ip), vehicle: saline with Tween-80) is reported as 112 % of control and the T/C (dose: 60.0 mg/kg/injection, schedule: Q01DX009 (ip), vehicle: saline with Tween-80) is reported as 112 % of control.
In the case of `NC1CCC1N` (centres undefined), the T/C (dose: 50.0 mg/kg/injection, schedule: Q01DX001 (ip), vehicle: saline) is reported as 110 % of control, the T/C [9] is reported as 105 % of control and the T/C [10] is reported as 105 % of control.
For `CC(C)c1c[nH]c(=O)[nH]c1=O`, the T/C [9] was 100 % of control, the T/C (dose: 100.0 mg/kg/injection, schedule: Q04DX003 (ip), vehicle: Klucel (hydroxypropylcellulose) (HPC)) was 104 % of control and the T/C [10] was 95 % of control. The T/C (dose: 200.0 mg/kg/injection, schedule: Q04DX003 (ip), vehicle: Klucel (hydroxypropylcellulose) (HPC)) was 90 % of control, the T/C (dose: 400.0 mg/kg/injection, schedule: Q01DX001 (ip), vehicle: saline) was 100 % of control and the T/C [8] was 104 % of control.
`Cc1cccc(NC(=S)N(C)C)c1` was tested, and the T/C [5] was 95 % of control, the T/C [7] was 100 % of control and the T/C (dose: 400.0 mg/kg/injection, schedule: Q04DX003 (ip), vehicle: saline with Tween-80) was 100 % of control.
